# Results published in patent publication US8945862B2, “Triple-fusion constructs and methods of monitoring human embryonic stem cells” (The Board of Trustees of the Leland Stanford Junior …, priority 2007, dated 2015).
# Test system: H9^DF hESCs
# Experiment: Bioluminescent imaging of transplanted hESC survival under immunosuppressive drug treatment
# Type: in vivo, BALB/c mice
# Settings: for BLI signal by post-transplant day 10: single drug treatment groups
# Protocol: H1, H9 and H9DF hESCs were initially maintained on top of murine embryonic fibroblasts feeder (MEF) layers as detailed in SI Methods. To prevent contamination of the transplanted hESC population with MEF, hESC colonies were separated from MEF by incubation with dispase (Invitrogen) and subcultured on feeder-free matrigel (hESC qualified, BD Biosciences) coated 6-well plates in mTeSR™ 1 maintenance medium (Stem Cell Technologies) for 2 to 5 passages. MHC expression on hESCs was evaluated by flow cytometry as detailed in SI Methods. Shortly prior to transplantation, hESCs were trypsinated, and resuspended in sterile PBS at 1×10^6 cells per 20 μl. hESC transplantation was performed by direct injection into gastrocnemius muscles of recipient mice (using a 29.5 gauge insulin syringe.
# BLI was performed using the Xenogen In Vivo Imaging System as previously described (38). Briefly, mice were anesthetized with isoflurane and D-luciferin was administered intraperitoneally at a dose of 375 mg/kg body weight. At the time of imaging, animals were placed in a light-tight chamber, and photons emitted from luciferase expressing hESCs transplanted into the animals were collected with integration times of 5 sec-5 min, depending on the intensity of the bioluminescence emission. The same mice were scanned repetitively as per the study design. BLI signal was quantified in units of photons per second (Total flux) and presented as Log[photons/sec].
smiles,measurement,setting,value
"COc1c(C)c2c(c(O)c1C/C=C(\C)CCC(=O)OCCN1CCOCC1)C(=O)OC2 [MMF, mycophenolate mofetil]",improvement of hESC survival by addition of MMF,over single TAC and/or SIR treatment,did not result in significant improvement
same,BLI signal by post-transplant day 10,,decreased to background levels
"CO[C@H]1C[C@@H]2CC[C@@H](C)[C@@](O)(O2)C(=O)C(=O)N2CCCC[C@H]2C(=O)O[C@H]([C@H](C)C[C@@H]2CC[C@@H](O)[C@H](OC)C2)CC(=O)[C@H](C)/C=C(\C)[C@@H](O)[C@@H](OC)C(=O)[C@H](C)C[C@H](C)/C=C/C=C/C=C/1C [SIR, sirolimus]",BLI signal at day 7,"monotherapy, 1×10^6 H9^DF hESCs in gastrocnemius muscle, NT 4.98±0.04, P<0.05",6.4±0.29 Log^[photons/sec]
"C=CC[C@@H]1/C=C(\C)C[C@H](C)C[C@H](OC)[C@H]2O[C@@](O)(C(=O)C(=O)N3CCCC[C@H]3C(=O)O[C@H](/C(C)=C/[C@@H]3CC[C@@H](O)[C@H](OC)C3)[C@H](C)[C@@H](O)CC1=O)[C@H](C)C[C@@H]2OC [TAC, Tacrolimus]",BLI signal by post-transplant day 10,,decreased to background levels
